Measurements reported in US20140171448A1, “USE OF NICOTINIC ACETYLCHOLINE RECEPTOR ALPHA 7 ACTIVATORS” (NOVARTIS AG, priority 2011, published 2014).

Legend:
[1] = target: T1, human neuronal nAChR α4β2 (Homo sapiens, UniProt P17787+P43681); assay: α4β2-nAChR functional assay in human epithelial cell line; format: cell-based
T1 construct: expressed in transfected cells; host or cells: human epithelial cell line (named a human embryonic kidney cell line)
Procedure: To assess the activity of the compound of the invention on the human neuronal nAChR α4β2, a similar functional assay is carried out using a human epithelial cell line stably expressing the human α4β2 subtype (Michelmore et al., Naunyn-Schmiedeberg's Arch.

[2] = Oral bioavailability and brain penetration in mice; format: in vivo; conditions: 30 μmol/kg p.o.
Procedure: Compounds were orally (30 μmol/kg) administered. Male mice (30-35g, OF1/ICstrain) were sacrificed at indicated time points after oral administration. Trunk-blood was collected in EDTA-containing tubes and the brain was removed and immediately frozen on dry ice.
To 100 μl plasma 10 μl internal standard (1.0 pmol of a compound with solubility and ionization properties similar to test compounds) was added and extracted three times with 500 μl dichloromethane. The combined extracts were then dried under a stream of nitrogen and re-dissolved in 100 μl acetonitrile/water (70% acetonitrile). Brains were weighed and homogenized in water (1:5 w/v). Two 100 μl aliquots of each homogenate+10 μl of internal standard (same standard as used for the plasma samples) were extracted three times with 500 μl dichloromethane and further processed as the plasma samples. Samples were separated on Beckmann high-performance liquid chromatography equipment system with an autosampler (Gilson 233XL).
The limit of detection (LOD), defined as the lowest concentration of the extracted standard sample with a signal to noise ratio of ˜3.

parkinsonian primates = assay: Antidyskinetic effect in parkinsonian primates (MPTP, levodopa-induced dyskinesia); format: in vivo, cynomolgus monkeys (Macaca fascicularis); conditions: with levodopa
Procedure: Female ovariectomized cynomolgus monkeys (Macaca fascicularis) are used in the assessment. The animals can be rendered parkinsonian by continuous infusion of 1-methyl-4-phenyl-1,2,3,6-tetrahydropyridine (MPTP) until they develop a stable parkinsonian syndrome. After recuperation, animals are treated daily with levodopa until clear and reproducible dyskinesias are developed.
Monkeys are observed through a one-way screen window in their home cage. They are observed and scored repeatedly at baseline and after a standard s.c. dose of levodopa. Locomotor activity is assessed and followed with an electronic monitoring system. Antiparkinsonian responses are evaluated by measuring the locomotor activity and a Parkinson disability scale (see Hadj Tahar A et al, Clin Neuropharmacol 2000; 23:195-202; and Samadi P et al, Neuropharmacology 2003; 45:954-963). Dyskinesias are closely monitored and scored according to a dyskinesia rating scale (also described in Hadj Tahar A et al; and Samadi P et al) every 15 minutes until the end of the effect. The doses of levodopa are chosen to induce motor activation and reproducible dyskinesia but no excessive agitation.
Monkeys are observed for at least two hours following an oral administration of vehicle. On a subsequent day, the dose of levodopa selected is tested once. The animals are observed (with measures of parkinsonian and dyskinetic scores) for the entire duration of the levodopa effect and are also monitored for locomotor activity. This provides vehicle control values as well as levodopa antiparkinsonian and dyskinesia response data for comparison with combinations of a α7-nAChR agonist/positive allosteric modulator and levodopa. The monkeys are then tested with a α7-nAChR agonist/positive allosteric modulator in combination with a fixed dose of levodopa. A suspension for oral administration of the α7-nAChR agonist/positive allosteric modulator is administered before levodopa. After each dose, the animals are observed (with measures of parkinsonian and dyskinetic scores) for the entire duration of effect and monitored for locomotor activity or any change in behavior (e.g. circling, excitement, lethargy and sleepiness).
Using this protocol, compound A-1 at a dose of 20 mg/kg was tested. Results based on five monkeys (levodopa/benserazide doses: 22.5/50 mg; 65/50 mg; 30/50 mg; 35/50 mg; and 25/50 mg) are shown in FIGS. 1-4.

T1 sequence (P43681 29-627 limits assumed): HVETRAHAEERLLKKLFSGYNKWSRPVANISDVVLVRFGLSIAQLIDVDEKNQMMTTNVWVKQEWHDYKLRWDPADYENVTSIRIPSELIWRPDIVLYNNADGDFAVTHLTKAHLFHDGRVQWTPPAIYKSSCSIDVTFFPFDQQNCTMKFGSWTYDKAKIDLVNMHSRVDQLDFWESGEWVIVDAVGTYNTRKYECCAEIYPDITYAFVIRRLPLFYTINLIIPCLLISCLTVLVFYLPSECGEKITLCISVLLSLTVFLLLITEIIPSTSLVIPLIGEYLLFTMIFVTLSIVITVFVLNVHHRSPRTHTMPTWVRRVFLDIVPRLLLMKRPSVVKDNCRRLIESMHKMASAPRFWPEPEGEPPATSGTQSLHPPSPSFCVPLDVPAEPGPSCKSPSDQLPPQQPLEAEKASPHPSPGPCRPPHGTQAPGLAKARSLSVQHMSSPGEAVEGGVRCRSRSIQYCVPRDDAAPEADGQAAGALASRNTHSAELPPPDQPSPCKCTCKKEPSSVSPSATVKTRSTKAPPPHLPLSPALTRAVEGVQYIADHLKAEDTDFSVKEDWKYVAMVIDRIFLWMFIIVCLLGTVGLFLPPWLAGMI
T1 sequence (P17787 26-502): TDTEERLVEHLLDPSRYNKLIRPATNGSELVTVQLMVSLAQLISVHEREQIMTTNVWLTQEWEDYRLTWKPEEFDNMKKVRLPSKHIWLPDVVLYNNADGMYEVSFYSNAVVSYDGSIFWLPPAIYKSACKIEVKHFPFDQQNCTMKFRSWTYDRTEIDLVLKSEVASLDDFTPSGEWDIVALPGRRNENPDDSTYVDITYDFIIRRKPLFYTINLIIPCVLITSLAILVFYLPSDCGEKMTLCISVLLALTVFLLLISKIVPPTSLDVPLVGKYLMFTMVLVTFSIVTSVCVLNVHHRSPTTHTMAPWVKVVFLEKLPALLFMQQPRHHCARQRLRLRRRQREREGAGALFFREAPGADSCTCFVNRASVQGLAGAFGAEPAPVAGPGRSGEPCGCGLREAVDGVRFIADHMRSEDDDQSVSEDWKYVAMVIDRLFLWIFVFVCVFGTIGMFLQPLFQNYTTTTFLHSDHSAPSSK

C[C@H](OC(=O)N[C@@H]1CN2CCC1CC2)c1ccccc1F [A-1, (S)-(1-aza-bicyclo[2.2.2]oct-3-yl)-carbamic acid (S)-1-(2-fluoro-phenyl)-ethyl ester]
EC50 [1]: > 100 µM
Brain (pmoles/g ± SD) ([2]; 4 hour): 101.6 ± 39.6 pmol/g
concentration at 0.5 h ([2]; male, OF1/IC, mouse, plasma, po, 0.5 hour, read-out: Plasma (pmoles/ml ± SD)): 635 ± 261 pmol/mL
concentration at 1 h ([2]; male, OF1/IC, mouse, plasma, po, 1 hour, read-out: Plasma (pmoles/ml ± SD)): 685 ± 340 pmol/mL
concentration at 2 h ([2]; male, OF1/IC, mouse, plasma, po, 2 hour, read-out: Plasma (pmoles/ml ± SD)): 168 ± 91.3 pmol/mL
concentration at 4 h ([2]; male, OF1/IC, mouse, plasma, po, 4 hour, read-out: Plasma (pmoles/ml ± SD)): 85 ± 54.3 pmol/mL
concentration at 6 h ([2]; male, OF1/IC, mouse, plasma, po, 6 hour, read-out: Plasma (pmoles/ml ± SD)): 29.5 ± 13.8 pmol/mL
concentration at 24 h ([2]; male, OF1/IC, mouse, plasma, po, 24 hour, read-out: Plasma (pmoles/ml ± SD)): 3.8 ± 0.6 pmol/mL
effect on antiparkinsonian activity of levodopa (parkinsonian primates): does not lower the antiparkinsonian activity of levodopa
effect on duration of the antiparkinsonian activity of levodopa (parkinsonian primates): significantly increases the duration of the antiparkinsonian activity seen for levodopa administration
effect on levodopa-induced dyskinesia (parkinsonian primates): significantly reduces levodopa-induced dyskinesia
effect on onset of action of levodopa (parkinsonian primates): does not delay the onset of action of levodopa
